# Experimental data from ChEMBL document CHEMBL2401713, “Discovery of bufadienolides as a novel class of ClC-3 chloride channel activators with antitumor activities” (J Med Chem, 2013).
# Active and inactive are the calls of the source. The rule behind the calls is not given here.
# Assays:
# [1] = Cell cycle arrest in human CNE2Z cells assessed as accumulation at sub-G1 phase at 5 uM after 24 hrs by propidium iodide staining-based flow cytometric analysis in presence of NPPB (reference value: 2%); assay type: functional
# [2] = Cell cycle arrest in human CNE2Z cells assessed as accumulation at sub-G1 phase at 1 uM after 24 hrs by propidium iodide staining-based flow cytometric analysis in presence of NPPB (reference value: 2%); assay type: functional
# CNE2Z [3] = test: Induction of apoptosis in human CNE2Z cells assessed as activation of caspase-8 at 1 to 50 uM after 24 hrs by luminometric analysis; assay type: functional, cell-based
# [4] = Cell cycle arrest in human CNE2Z cells assessed as accumulation at sub-G1 phase at 5 uM after 24 hrs by propidium iodide staining-based flow cytometric analysis in presence of tamoxifen (reference value: 1.5%); assay type: functional
# [5] = Cell cycle arrest in human CNE2Z cells assessed as accumulation at sub-G1 phase at 5 uM after 24 hrs by propidium iodide staining-based flow cytometric analysis in presence of ClC-3 siRNA (reference value: 1.3%); assay type: functional
# [6] = Cytotoxicity against human CNE1 cells assessed as growth inhibition after 48 hrs by MTT assay; assay type: functional, cell-based; details: CNE
# [7] = Cell cycle arrest in human CNE2Z cells assessed as accumulation at sub-G1 phase at 50 uM after 24 hrs by propidium iodide staining-based flow cytometric analysis in presence of ClC-3 siRNA (reference value: 1.3%); assay type: functional
# H22 = test: Cytotoxicity against mouse H22 cells expressing mutated alpha-1 Na+/K+-ATPase assessed as growth inhibition after 48 hrs by MTT assay; assay type: functional, cell-based; details: H22, 48 h
# CCRF S-180 = test: Cytotoxicity against mouse S180 cells expressing mutated alpha-1 Na+/K+-ATPase assessed as growth inhibition after 48 hrs by MTT assay; assay type: functional, cell-based; details: CCRF S-180, 48 h
# [8] = Cell cycle arrest in human CNE2Z cells assessed as accumulation at sub-G1 phase at 50 uM after 24 hrs by propidium iodide staining-based flow cytometric analysis (reference value: 1.1%); assay type: functional
# HepG2 [9] = test: Cytotoxicity against human HepG2 cells assessed as growth inhibition after 48 hrs by MTT assay; assay type: functional, cell-based; details: HepG2, 48 h
# [10] = Cell cycle arrest in human CNE2Z cells assessed as accumulation at sub-G1 phase at 5 uM after 24 hrs by propidium iodide staining-based flow cytometric analysis (reference value: 1.1%); assay type: functional
# [11] = biological target: T1, H(+)/Cl(-) exchange transporter 3 (Homo sapiens) (UniProt P51790); test: Activation of ClC-3 in human CNE2Z cells assessed as increase in chloride current density at +80mV holding potential at 1 uM by whole-cell patch clamp method relative to vehicle-treated control; assay type: cell-based
# T1 sequence (whole entry): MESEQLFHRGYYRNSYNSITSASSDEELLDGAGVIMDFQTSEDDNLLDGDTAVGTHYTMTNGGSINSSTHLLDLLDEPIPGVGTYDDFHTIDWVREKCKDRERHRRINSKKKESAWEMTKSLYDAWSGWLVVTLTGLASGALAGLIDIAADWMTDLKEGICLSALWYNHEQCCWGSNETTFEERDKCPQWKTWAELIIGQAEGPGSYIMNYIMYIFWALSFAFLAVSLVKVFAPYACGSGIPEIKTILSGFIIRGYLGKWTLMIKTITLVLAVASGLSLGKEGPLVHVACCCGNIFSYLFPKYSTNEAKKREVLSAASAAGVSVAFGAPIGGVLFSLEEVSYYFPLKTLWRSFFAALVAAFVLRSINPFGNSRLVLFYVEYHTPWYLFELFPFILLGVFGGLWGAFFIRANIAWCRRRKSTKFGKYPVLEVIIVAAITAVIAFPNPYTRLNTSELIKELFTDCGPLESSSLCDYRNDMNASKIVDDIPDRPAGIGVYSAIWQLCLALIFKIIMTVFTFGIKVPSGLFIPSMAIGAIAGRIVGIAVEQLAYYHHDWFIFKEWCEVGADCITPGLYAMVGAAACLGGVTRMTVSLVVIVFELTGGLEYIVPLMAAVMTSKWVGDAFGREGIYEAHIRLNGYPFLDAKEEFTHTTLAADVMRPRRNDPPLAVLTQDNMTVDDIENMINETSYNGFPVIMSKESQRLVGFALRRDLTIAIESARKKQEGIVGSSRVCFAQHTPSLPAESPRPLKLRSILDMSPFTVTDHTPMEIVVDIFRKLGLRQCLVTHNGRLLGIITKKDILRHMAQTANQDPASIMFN
# HepG2 [12] = test: Cytotoxicity against adriamycin-resistant human HepG2 cells assessed as growth inhibition after 48 hrs by MTT assay; assay type: functional, cell-based; details: HepG2, 48 h
# [13] = Upregulation of ClC-3 protein expression in human CNE2Z cells after 24 hrs by Western blot analysis; assay type: functional, cell-based
# [14] = Cell cycle arrest in human CNE2Z cells assessed as accumulation at sub-G1 phase at 1 uM after 24 hrs by propidium iodide staining-based flow cytometric analysis (reference value: 1.1%); assay type: functional
# [15] = biological target: T1, H(+)/Cl(-) exchange transporter 3 (Homo sapiens); test: Activation of ClC-3 in human CNE2Z cells assessed as increase in chloride current in outward and inward direction at +80mV holding potential at 1 uM by whole-cell patch clamp method; assay type: cell-based
# [16] = Cell cycle arrest in human CNE2Z cells assessed as accumulation at sub-G1 phase at 1 uM after 24 hrs by propidium iodide staining-based flow cytometric analysis in presence of tamoxifen (reference value: 1.5%); assay type: functional
# [17] = Cell cycle arrest in human CNE2Z cells assessed as accumulation at sub-G1 phase at 50 uM after 24 hrs by propidium iodide staining-based flow cytometric analysis in presence of tamoxifen (reference value: 1.5%); assay type: functional
# [18] = Cytotoxicity against human CNE2Z cells assessed as growth inhibition after 48 hrs by MTT assay; assay type: functional, cell-based
# CNE2Z [19] = test: Induction of apoptosis in human CNE2Z cells assessed as activation of caspase-3/7 at 1 to 50 uM after 24 hrs by luminometric analysis; assay type: functional, cell-based
# [20] = Cell cycle arrest in human CNE2Z cells assessed as accumulation at sub-G1 phase at 50 uM after 24 hrs by propidium iodide staining-based flow cytometric analysis in presence of NPPB (reference value: 2%); assay type: functional
# [21] = Cell cycle arrest in human CNE2Z cells assessed as accumulation at sub-G1 phase at 1 uM after 24 hrs by propidium iodide staining-based flow cytometric analysis in presence of ClC-3 siRNA (reference value: 1.3%); assay type: functional
# CNE2Z [22] = test: Induction of apoptosis in human CNE2Z cells assessed as increase in apoptotic cell level at 1 to 10 uM after 24 hrs by annexin V-FITC/propidium iodide staining-based flow cytometric analysis; assay type: functional
# [23] = Cell cycle arrest in human CNE2Z cells assessed as accumulation at sub-G1 phase at 10 uM after 24 hrs by propidium iodide staining-based flow cytometric analysis (reference value: 1.1%); assay type: functional
# CNE2Z [24] = test: Induction of apoptosis in human CNE2Z cells assessed as induction of PARP cleavage at 1 uM after 24 hrs by annexin V-FITC/propidium iodide staining-based flow cytometric analysis; assay type: functional, cell-based
# CNE2Z [25] = test: Induction of apoptosis in human CNE2Z cells assessed as increase in apoptotic cell level at 1 to 10 uM after 24 hrs by annexin V-FITC/propidium iodide staining-based flow cytometric analysis in presence of tamoxifen, NPPB, ClC-3 siRNA; assay type: functional
# CNE2Z [26] = test: Induction of apoptosis in human CNE2Z cells assessed as activation of caspase-3 at 1 uM after 24 hrs by annexin V-FITC/propidium iodide staining-based flow cytometric analysis; assay type: functional, cell-based
# [27] = Cell cycle arrest in human CNE2Z cells assessed as accumulation at sub-G1 phase at 10 uM after 24 hrs by propidium iodide staining-based flow cytometric analysis in presence of ClC-3 siRNA (reference value: 1.3%); assay type: functional
# CNE2Z [28] = test: Induction of apoptosis in human CNE2Z cells assessed as induction of PARP cleavage at 1 uM after 24 hrs by annexin V-FITC/propidium iodide staining-based flow cytometric analysis in presence of tamoxifen, NPPB, ClC-3 siRNA; assay type: functional, cell-based
# [29] = Cytotoxicity against SV40-transformed human NP69 cells assessed as cell viability after 48 hrs by MTT assay; assay type: cell-based; details: NP69, 48 h
# CNE2Z [30] = test: Induction of apoptosis in human CNE2Z cells assessed as expression of caspase-3 at 1 uM after 24 hrs by annexin V-FITC/propidium iodide staining-based flow cytometric analysis in presence of tamoxifen, NPPB, ClC-3 siRNA; assay type: functional, cell-based
# [31] = Cell cycle arrest in human CNE2Z cells assessed as accumulation at sub-G1 phase at 10 uM after 24 hrs by propidium iodide staining-based flow cytometric analysis in presence of tamoxifen (reference value: 1.5%); assay type: functional
# [32] = Cell cycle arrest in human CNE2Z cells assessed as accumulation at sub-G1 phase at 10 uM after 24 hrs by propidium iodide staining-based flow cytometric analysis in presence of NPPB (reference value: 2%); assay type: functional
compound,measurement,setting,value
CC(=O)O[C@@H]1C[C@H](c2ccc(=O)oc2)[C@@]2(C)CC[C@H]3[C@@H](CC[C@@H]4C[C@@H](O)CC[C@@]43C)[C@@]12O,Activity,[1],3.5%
same,Activity,[2],2.8%
same,Activity,CNE2Z [3],inactive
same,Activity,[4],3.5%
same,Activity,[5],3.3%
same,IC50,[6],> 100 µM
same,Activity,[7],3.4%
same,IC50,H22,> 50 µM
same,IC50,CCRF S-180,> 50 µM
same,Activity,[8],4%
same,IC50,HepG2 [9],> 100 µM
same,Activity,[10],3.1%
same,Activity,[11],inactive
same,IC50,HepG2 [12],> 100 µM
same,Activity,[13],inactive
same,Activity,[14],1.3%
same,Activity,[15],inactive
same,Activity,[16],2.2%
same,Activity,[17],3.9%
same,IC50,[18],> 100 µM
same,Activity,CNE2Z [19],inactive
same,Activity,[20],3.8%
same,Activity,[21],3%
same,Activity,CNE2Z [22],inactive
C[C@]12CC[C@H](OC(=O)CCCCCCC(=O)O)C[C@H]1CC[C@@H]1[C@@H]2CC[C@]2(C)[C@@H](c3ccc(=O)oc3)CC[C@]12O,IC50,[6],4.99 µM
same,IC50,H22,> 50 µM
same,IC50,CCRF S-180,> 50 µM
same,IC50,HepG2 [9],> 100 µM
same,IC50,HepG2 [12],> 100 µM
same,IC50,[18],7.38 µM
C[C@]12CC[C@H](O)C[C@H]1CC[C@@H]1[C@@H]2CC[C@]2(C)[C@@H](c3ccc(=O)oc3)CC[C@]12O [BUFALIN],Activity,[23],59.1%
same,Activity,[1],33.9%
same,Activity,[2],23.1%
same,Activity,CNE2Z [24],Active
same,Activity,CNE2Z [25],inactive
same,Activity,[4],36.9%
same,Activity,[5],31.7%
same,Activity,CNE2Z [26],Active
same,IC50,[6],0.279 µM
same,IC50,H22,> 50 µM
same,IC50,CCRF S-180,> 50 µM
same,Activity,[27],40.9%
same,Activity,CNE2Z [28],inactive
same,IC50,HepG2 [9],0.589 µM
same,Activity,[10],50.5%
same,IC50,[29],> 25 µM
same,Activity,CNE2Z [30],inactive
same,IC50,HepG2 [12],0.345 µM
same,Activity,[13],Dose-dependent effect
same,Activity,[14],39.1%
same,Activity,[16],26.5%
same,Activity,[31],43.9%
same,IC50,[18],0.46 µM
same,Activity,[32],42.7%
same,Activity,[21],21.5%
same,Activity,CNE2Z [22],35.2%
C[C@]12CC[C@H]3[C@@H](CC[C@@H]4C[C@@H](O)CC[C@@]43C=O)[C@]13O[C@@H]3C[C@@H]2c1ccc(=O)oc1,IC50,[6],15.2 µM
same,IC50,H22,> 50 µM
same,IC50,CCRF S-180,> 50 µM
same,IC50,HepG2 [9],> 100 µM
same,IC50,HepG2 [12],> 100 µM
same,IC50,[18],26.5 µM
COC(=O)CCCCCCC(=O)O[C@H]1CC[C@@]2(C)[C@H](CC[C@@H]3[C@@H]2CC[C@]2(C)[C@@H](c4ccc(=O)oc4)CC[C@]32O)C1,IC50,[6],1.72 µM
same,IC50,H22,> 50 µM
same,IC50,CCRF S-180,> 50 µM
same,IC50,HepG2 [9],3.18 µM
same,Activity,[11],Active
same,IC50,HepG2 [12],2.38 µM
same,IC50,[18],2.87 µM
CC(=O)O[C@H]1[C@H]2O[C@]23[C@@H]2CC[C@@H]4C[C@@H](O)CC[C@]4(C)[C@H]2CC[C@]3(C)[C@H]1c1ccc(=O)oc1 [CINOBUFAGIN],IC50,[6],0.31 µM
same,IC50,H22,> 50 µM
same,IC50,CCRF S-180,> 50 µM
same,IC50,HepG2 [9],2.35 µM
same,IC50,HepG2 [12],1.71 µM
same,IC50,[18],0.39 µM
C[C@]12CC[C@H](O)C[C@H]1CC[C@@H]1[C@@H]2CC[C@]2(C)[C@@H](c3ccc(=O)oc3)[C@@H](O)C[C@]12O [DESACETYLBUFOTALIN],IC50,[6],4.89 µM
same,IC50,H22,> 50 µM
same,IC50,CCRF S-180,> 50 µM
same,IC50,HepG2 [9],3.58 µM
same,Activity,[11],Active
same,IC50,HepG2 [12],2.6 µM
same,IC50,[18],1.77 µM
